In US11873496B2, “Methods of altering gene expression by perturbing transcription factor multimers that structure regulatory loops” (Whitehead Institute for Biomedical Research, priority 2017, dated 2024):
Values belong to the molecule of their own block, whether it stands above or below them.

How the values were obtained:
AID-tagged CTCF protein [1] = molecular target: T1, AID-tagged CTCF protein (UniProt Q61164); conditions: AID tag knocked-in at endogenous Ctcf locus; cited from earlier work
T1 construct: The AID tag was knocked-in at the endogenous Ctcf gene locus
T1 sequence (Q61164+P93830 fused): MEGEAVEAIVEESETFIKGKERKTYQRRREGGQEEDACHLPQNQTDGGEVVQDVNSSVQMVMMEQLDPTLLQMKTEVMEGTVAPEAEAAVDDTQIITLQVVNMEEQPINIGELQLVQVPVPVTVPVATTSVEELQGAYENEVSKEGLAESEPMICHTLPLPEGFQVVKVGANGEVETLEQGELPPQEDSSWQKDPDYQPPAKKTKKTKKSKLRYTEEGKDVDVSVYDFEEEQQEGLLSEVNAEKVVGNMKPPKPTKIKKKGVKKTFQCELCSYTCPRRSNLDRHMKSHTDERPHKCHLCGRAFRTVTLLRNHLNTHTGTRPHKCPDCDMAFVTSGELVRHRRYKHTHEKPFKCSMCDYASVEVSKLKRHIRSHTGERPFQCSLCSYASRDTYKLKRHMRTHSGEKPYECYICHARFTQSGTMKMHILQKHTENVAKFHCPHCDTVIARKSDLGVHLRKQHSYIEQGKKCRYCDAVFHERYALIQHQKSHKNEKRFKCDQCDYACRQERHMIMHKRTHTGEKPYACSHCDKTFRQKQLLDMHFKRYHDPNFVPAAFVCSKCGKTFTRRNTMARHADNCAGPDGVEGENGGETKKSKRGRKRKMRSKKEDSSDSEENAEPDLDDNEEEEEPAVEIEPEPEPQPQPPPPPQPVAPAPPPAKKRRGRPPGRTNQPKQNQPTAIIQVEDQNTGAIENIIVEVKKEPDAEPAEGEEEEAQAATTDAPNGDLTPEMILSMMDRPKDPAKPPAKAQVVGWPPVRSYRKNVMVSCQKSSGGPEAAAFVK
T1 sequence (Q7XVM8 whole entry, further chain): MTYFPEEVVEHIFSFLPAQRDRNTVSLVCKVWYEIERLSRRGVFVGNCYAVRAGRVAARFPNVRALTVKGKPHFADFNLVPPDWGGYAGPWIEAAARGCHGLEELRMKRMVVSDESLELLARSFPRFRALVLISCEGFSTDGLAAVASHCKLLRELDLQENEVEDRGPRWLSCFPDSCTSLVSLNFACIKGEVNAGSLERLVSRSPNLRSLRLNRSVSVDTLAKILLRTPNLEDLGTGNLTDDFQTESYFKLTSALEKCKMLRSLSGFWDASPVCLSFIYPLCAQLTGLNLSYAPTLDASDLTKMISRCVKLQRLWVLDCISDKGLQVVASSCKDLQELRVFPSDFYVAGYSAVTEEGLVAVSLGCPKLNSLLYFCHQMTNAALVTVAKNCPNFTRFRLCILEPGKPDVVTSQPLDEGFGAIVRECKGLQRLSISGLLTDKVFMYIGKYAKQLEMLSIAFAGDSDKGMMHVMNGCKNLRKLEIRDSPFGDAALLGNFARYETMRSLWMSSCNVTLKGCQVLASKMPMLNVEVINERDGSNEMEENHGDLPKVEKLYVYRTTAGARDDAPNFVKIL
T1 sequence (Q9WTX5 whole entry partner): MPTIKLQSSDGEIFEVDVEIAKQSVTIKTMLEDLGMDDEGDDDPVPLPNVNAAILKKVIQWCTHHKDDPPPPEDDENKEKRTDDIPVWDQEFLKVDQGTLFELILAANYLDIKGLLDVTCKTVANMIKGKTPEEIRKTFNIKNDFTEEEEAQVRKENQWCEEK

AID-tagged CTCF protein [2] = molecular target: T2, AID-tagged CTCF protein (UniProt P93830+Q61164+Q7XVM8); conditions: washout; cited from earlier work
T2 construct: The AID tag was knocked-in at the endogenous Ctcf gene locus
T2 sequence (Q61164+P93830 fused): as the sequence (Q61164+P93830 fused) above
T2 sequence (Q7XVM8 whole entry): as the sequence (Q7XVM8 whole entry, further chain) above
T2 sequence (Q9WTX5 whole entry partner): as the sequence (Q9WTX5 whole entry partner) above

YY1 = YY1 (Homo sapiens, UniProt P25490 P25490:1-414); experiment: competition; 100 nM competitor abrogated YY1-enhanced circularization of template, 20 C
YY1, sequence (P25490 whole entry, one chain of several): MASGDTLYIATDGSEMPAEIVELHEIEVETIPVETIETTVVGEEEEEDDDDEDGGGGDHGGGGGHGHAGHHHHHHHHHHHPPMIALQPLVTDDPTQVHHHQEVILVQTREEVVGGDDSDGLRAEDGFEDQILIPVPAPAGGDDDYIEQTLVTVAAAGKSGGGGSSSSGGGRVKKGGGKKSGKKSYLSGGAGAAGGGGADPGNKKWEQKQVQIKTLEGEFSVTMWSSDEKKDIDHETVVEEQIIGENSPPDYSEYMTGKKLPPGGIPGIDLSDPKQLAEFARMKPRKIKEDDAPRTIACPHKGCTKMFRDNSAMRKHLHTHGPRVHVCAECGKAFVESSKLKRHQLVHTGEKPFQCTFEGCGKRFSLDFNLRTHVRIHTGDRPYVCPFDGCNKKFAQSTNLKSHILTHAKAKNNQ
Method: Reactions were incubated at 20° C. for 20 minutes to allow binding of YY1 to the DNA. For each timepoint 6 µL of the reaction was withdrawn and quenched in a total volume of 9 µL with a final concentration of 30 mM EDTA, 1×NEB loading dye (NEB, B7024S), 1 ug/µL of proteinase K, and heated at 65° C. for 5 minutes. Timepoint 0 was taken and then 600 units of T4 DNA ligase (NEB M0202) was added and the reaction was carried out at 20° C. Indicated timepoints were taken and then samples were run on a 4-20% TBE gradient gel for three hours at 120 V. The gel was stained with SYBR Gold (Life Technologies S11494) and imaged with a CCD camera.

[3] = molecular target: T3, FLAG-tagged YY1 and HA-tagged YY1 (Homo sapiens, UniProt P25490); experiment: Co-immunoprecipitation of FLAG-tagged and HA-tagged YY1 from nuclear extracts; type: binding, mouse; conditions: nuclear extract treated prior to immunoprecipitation
T3 construct: expressed in transfected cells; host or cells: V6.5 mESCs, transient transfection, nuclear extract
T3 sequence (P25490 whole entry): as the sequence (P25490 whole entry, one chain of several) above
T3 sequence (P25490 whole entry): as the sequence (P25490 whole entry, one chain of several) above
Method: V6.5 mESCs were transfected with pcDNA3 FLAG YY1 and pcDNA3 […] using Lipofectamine 3000 (Life Technologies #L3000001) according to the manufacturer's instructions. Briefly, cells were split and 8 million cells were plated onto a gelatinized 15 cm plate. 7.5 μg of each plasmid was mixed with 30 μL P3000 reagent and 75 μL Lipofectamine 3000 reagent (Life Technologies #L3000001) in 1250 μL of DMEM (Life technologies #11995-073). After ˜12-16 hours media was changed.
Cells were harvested 48 hours after transfection by washing twice with ice-cold PBS and collected by scraping in ice-cold PBS. Harvested cells were centrifuged at 1,000 rcf for 3 minutes to pellet cells. Supernatant was discarded and cell pellets were flash frozen and stored at −80° C. until ready to prepare nuclear extract. For each 15 cm plate of cells, frozen cell pellets were resuspended in 5 mL of ice-cold hypotonic lysis buffer (20 mM HEPES-KOH pH 7.5, 20% glycerol, 10 mM NaCl, 0.1% Triton X-100, 1.5 mM MgCl2, 0.5 mM DTT and protease inhibitor (Roche, 11697498001)) and incubated on ice for 10 minutes to extract nuclei. Nuclei were pelleted by centrifugation at 14,000 rcf for 10 minutes at 4° C. […] Protein concentration of extracts was quantified by BCA assay (Thermo Scientific, 23225) and protein concentration was adjusted to 400 μg/mL by addition of appropriate volume of 1:2 nuclear extraction buffer:dilution buffer. […]

Molecule: O=C(O)Cc1c[nH]c2ccccc12 [auxin]
CTCF protein degradation (AID-tagged CTCF protein [1]): proteasome-mediated degradation
washout time allowing recovery of CTCF protein (AID-tagged CTCF protein [2]): 2 days

B1: competitor DNA with YY1 consensus sites (dsDNA)
DNA 1: GAGCAACAACAACAACGAACCGGTTCGACCTCCCCGGCCATCTTTCGACCTCCCCGGCCATCTTTCGACCTCCCCGGCCATCTTTCGACCTCCCCGGCCATCTTTCGACCTCCCCGGCCATCTTTCGACCTCCCCGGCCATCTTTCGACCTCCCCGGCCATCTTTCGACCTCCCGTCGACAGAGGCAGCAAAAGCCAGA
DNA 2: TCTGGCTTTTGCTGCCTCTGTCGACGGGAGGTCGAAAGATGGCCGGGGAGGTCGAAAGATGGCCGGGGAGGTCGAAAGATGGCCGGGGAGGTCGAAAGATGGCCGGGGAGGTCGAAAGATGGCCGGGGAGGTCGAAAGATGGCCGGGGAGGTCGAAAGATGGCCGGGGAGGTCGAACCGGTTCGTTGTTGTTGTTGCTC
binding result (YY1): binds

reduction in the amount of co-immunoprecipitated YY1 partner protein [3]: ~60%
B2: RNase A: RNase A (Sigma, R4642) used to treat nuclear extract (protein, UniProt P61823 27-150, looked up)
Ribonuclease pancreatic: KETAAAKFERQHMDSSTSAASSSNYCNQMMKSRNLTKDRCKPVNTFVHESLADVQAVCSQKNVACKNGQTNCYQSYSTMSITDCRETGSSKYPNCAYKTTQANKHIIVACEGNPYVPVHFDASV
